The text below walks through data of patent US8748407B2 (The Research Foundation for the State University of New York, priority 2010, dated 2014).

Common to all, as to type: cell-based
Data set [1] deals with T1, GluA1 (Rattus norvegicus, UniProt P19490).
T1 construct: expressed in transfected cells; host or cells: HEK-293S
Description: Whole-cell current recording, GluA1. The source says: (§1) The original cDNAs in pBlueScript encoding rat GluA1, 2 and 3 AMPA receptors and GluK2 kainate receptor were kindly provided by Steve Heinemann. The GluA4 DNA plasmid was kindly provided by Peter Seeburg. The GluK1 plasmid was kindly provided by Geoffrey Swanson. The cDNAs of all three NMDA receptor subunits were gifts from John Woodward. All DNA plasmids were propagated using Escherichia coli host (DH5α) and purified using QIAGEN DNA purification kits.
(§2) All of the receptors were transiently expressed in HEK-293S cell. HEK-293S cells were maintained in Dulbecco's modified Eagle's medium (DMEM) supplemented with 10% fetal bovine serum and 1% penicillin in a 37° C., 5% CO2, humidified incubator. Receptors were transiently transfected by using calcium phosphate or lipofectamine 2000 (Invitrogen). The DNA plasmids encoding green fluorescent protein (GFP) and T-antigen (TAg) were cotransfected in HEK-293 S cells. […]
(§3) The procedure for whole-cell current recording to assay the inhibitory property of an RNA aptamer is known to those of skill in the art and has been previously described^7. […] The whole-cell current was recorded using an Axopatch-200B amplifier at a cutoff frequency of 2-20 kHz by a built-in, eight-pole Bessel filter and digitized at 5-50 kHz sampling frequency using a Digidata 1322A from Axon Instruments (Molecular Devices, Sunnyvale, Calif.). […]

Data set [2] concerns GluK1. In words: Whole-cell current recording, kainate receptor GluK1.
Description: as §1, §2, §3

Data set [3] addresses T2, GluA3 (Rattus norvegicus, UniProt P19492).
T2 construct: expressed in transfected cells; host or cells: HEK-293S
Description: Whole-cell current recording, GluA3.
Description: as §1, §2, §3

Data set [4] concerns the target T3, GluA2Qflip (Rattus norvegicus, UniProt P19491).
T3 construct: expressed in transfected cells; host or cells: HEK-293S
In words: Laser-pulse photolysis of caged glutamate, channel-opening kinetics. The source says: The use of the laser-pulse photolysis technique to measure the channel-opening kinetics has been described^7. […] In the laser-pulse photolysis measurement of channel opening, a single laser pulse at 355 nm with a pulse length of 8 ns was generated from a pulsed Q-switched Nd:YAG laser (Continuum, Santa Clara, Calif.). The pulse energy varied in the range of 200-800 μJ, measured at the end of an optical fiber (300 μm core diameter) into which the laser was coupled. […] The current amplitudes obtained from this calibration were compared with the amplitude from the laser measurement with reference to the dose-response relationship. These measurements also allowed us to monitor any damage to the receptors and/or the cell for successive laser experiments with the same cell^7.
To deliver AG56 to a HEK-293 cell, a “Ψ”-shaped flow device was used. […] In all experiments reported in this study, a 6-second preincubation flow protocol was used for full aptamer preincubation. […] The corrected current amplitude was used for data analysis.
The use of this technique allows the investigation of the effect of AG56 on the channel-opening kinetic mechanism of the GluA2Qflip receptors. Before describing how the mechanism of inhibition is elucidated, the kinetic characterization of channel-opening rate process is presented.
A represents the active form of the receptor, L, the ligand, ALn the closed-channel forms, and ALn the open-channel form, K1 the intrinsic dissociation constant of activating ligand and Φ the channel opening equilibrium constant (Φ^−1=kcl/kop). Based on this mechanism and the assumption that the ligand-binding rate was fast as compared to the channel opening, the observed rate constant of channel opening or kobs can be formulated as in equ. 2.
In equ. 2, kcl is the channel-closing rate constant or the lifetime of the channel, τ (τ=1/kcl), kop is the channel-opening rate constant, and n the number of the ligand molecules to bind to the receptor complex to open the channel (i.e., n=1-4). Imax is the maximum current amplitude, and It is the current amplitude at time t.
The mechanism of inhibition was characterized by studying the effect of an inhibitor such as AG56 on the channel-opening rate process^13,14. In general there are three ways in which an ion channel receptor can be inhibited. For instance, an inhibitor binds only to the open-channel state or conformation and then inhibits it (Mechanism 1, uncompetitive mechanism of inhibition or open-channel blockade). Alternatively, an inhibitor binds to both the closed- and open-channel states through a regulatory site (Mechanism 2, noncompetitive mechanism). The observed rate constant, kobs in the presence and absence of an inhibitor can be measured using equ. 3. […] 4 for mechanism 1, and equ. 5 for mechanism 2.
In deriving these equations, one binding site for inhibitor per receptor molecule is assumed. […] 4 or 5 to the overall rate, kobs, is negligible. Under this condition, the effect of the inhibitor on the kcl can be measured^13. Specifically, for both Mechanisms 1 and 2, the effects of the inhibitor on kcl are the same, and can be obtained by equ. 6, which can be derived from either equ. 4 or 5. From equ. 6, the equilibrium dissociation constant of the inhibitor from the open-channel state, KI, can be determined.
For Mechanism 2 or a noncompetitive mechanism of inhibition, the inhibitor will affect kop additionally (equ. 8), if KI<I, I being the molar concentration used to measure the KI value. Consequently the dissociation constant of the inhibitor for the closed-channel conformation can be further determined for Mechanism 2. It should be emphasized that the presence of an inhibitory effect of a noncompetitive inhibitor is due to the fact that the inhibitor must first bind to the closed-channel conformation, as illustrated in Mechanism 2, shown above. […]

Data set [5] has as its target T4, GluA4 (Rattus norvegicus, UniProt P19493).
T4 construct: expressed in transfected cells; host or cells: HEK-293S
In words: Whole-cell current recording, GluA4.
Description: as §1
All of the receptors were transiently expressed in HEK-293S cell. HEK-293S cells were maintained in Dulbecco's modified Eagle's medium (DMEM) supplemented with 10% fetal bovine serum and 1% penicillin in a 37° C., 5% CO2, humidified incubator. Receptors were transiently transfected by using calcium phosphate or lipofectamine 2000 (Invitrogen). The DNA plasmids encoding green fluorescent protein (GFP) and T-antigen (TAg) were cotransfected in HEK-293 S cells. GFP was used as a transfection marker for cell recording, and TAg was cotransfected to potentiate the receptor expression at the single-cell level^6. Transfected cells were allowed to grow for 48 hour before they were used for recording.
The procedure for whole-cell current recording to assay the inhibitory property of an RNA aptamer is known to those of skill in the art and has been previously described^7. […] The extracellular buffer composition is described above (see “Receptor Preparation”). For recording of the NMDA channels, the intracellualr solution contained (in mM) 140 CsCl, 1 MgCl2, 0.1 EGTA, and 10 HEPES (pH 7.2 adjusted by […]), while the extracellular solution contained (in mM) 135 NaCl, 5.4 KCl, 1.8 CaCl2, 10 glucose and 5 HEPES (pH 7.2 adjusted by NaOH). In the extracellular buffer, 2 μM of glycine was added (glycine was the co-agonist of NMDA receptor)^2. All reagents including aptamer were dissolved in the corresponding extracellular buffer and used. […] The whole-cell current was recorded using an Axopatch-200B amplifier at a cutoff frequency of 2-20 kHz by a built-in, eight-pole Bessel filter and digitized at 5-50 kHz sampling frequency using a Digidata 1322A from Axon Instruments (Molecular Devices, Sunnyvale, Calif.). The pClamp 8 software (Molecular Devices) was used for data acquisition. All whole-cell recordings were at −60 mV and 22° C.

Data set [6] concerns the target T5, GluN1a/2A (Rattus norvegicus, UniProt P35439+Q00959).
T5 construct: expressed in transfected cells; host or cells: HEK-293S
Description: Whole-cell current recording, NMDA receptor GluN1a/2A.
Description: as §1, §2, §3

Data set [7] deals with T6, GluK2 (Rattus norvegicus, UniProt P42260).
T6 construct: expressed in transfected cells; host or cells: HEK-293S
Description: Whole-cell current recording, kainate receptor GluK2.
Description: as §1, §2, §3

The mark [8] stands for this setting: 100 μM photolytically released glutamate.

T3 sequence (P19491 22-883 isoform P19491-2): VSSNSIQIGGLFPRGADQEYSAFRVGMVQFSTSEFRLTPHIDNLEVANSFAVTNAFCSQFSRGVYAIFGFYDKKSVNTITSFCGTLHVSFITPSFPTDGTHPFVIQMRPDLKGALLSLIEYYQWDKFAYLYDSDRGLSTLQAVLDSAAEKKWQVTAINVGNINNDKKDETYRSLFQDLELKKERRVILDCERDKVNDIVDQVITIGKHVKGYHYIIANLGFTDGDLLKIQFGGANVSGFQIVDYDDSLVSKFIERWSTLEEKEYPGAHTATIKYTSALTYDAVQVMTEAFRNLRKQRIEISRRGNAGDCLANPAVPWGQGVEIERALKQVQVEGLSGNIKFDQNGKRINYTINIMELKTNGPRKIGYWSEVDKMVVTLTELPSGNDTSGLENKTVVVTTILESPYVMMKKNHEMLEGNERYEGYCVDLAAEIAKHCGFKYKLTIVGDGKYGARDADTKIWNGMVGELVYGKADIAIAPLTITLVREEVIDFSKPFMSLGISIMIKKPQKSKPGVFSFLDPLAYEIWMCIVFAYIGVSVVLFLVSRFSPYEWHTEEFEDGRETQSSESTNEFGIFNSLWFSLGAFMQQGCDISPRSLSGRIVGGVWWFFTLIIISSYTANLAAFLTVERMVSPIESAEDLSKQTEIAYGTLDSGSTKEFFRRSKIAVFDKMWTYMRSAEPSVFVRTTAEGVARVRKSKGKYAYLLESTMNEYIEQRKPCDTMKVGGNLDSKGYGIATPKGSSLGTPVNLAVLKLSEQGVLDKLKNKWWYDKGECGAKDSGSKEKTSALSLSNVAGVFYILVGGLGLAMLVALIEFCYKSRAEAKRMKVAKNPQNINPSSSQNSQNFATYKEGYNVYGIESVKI
T4 sequence (P19493 21-902): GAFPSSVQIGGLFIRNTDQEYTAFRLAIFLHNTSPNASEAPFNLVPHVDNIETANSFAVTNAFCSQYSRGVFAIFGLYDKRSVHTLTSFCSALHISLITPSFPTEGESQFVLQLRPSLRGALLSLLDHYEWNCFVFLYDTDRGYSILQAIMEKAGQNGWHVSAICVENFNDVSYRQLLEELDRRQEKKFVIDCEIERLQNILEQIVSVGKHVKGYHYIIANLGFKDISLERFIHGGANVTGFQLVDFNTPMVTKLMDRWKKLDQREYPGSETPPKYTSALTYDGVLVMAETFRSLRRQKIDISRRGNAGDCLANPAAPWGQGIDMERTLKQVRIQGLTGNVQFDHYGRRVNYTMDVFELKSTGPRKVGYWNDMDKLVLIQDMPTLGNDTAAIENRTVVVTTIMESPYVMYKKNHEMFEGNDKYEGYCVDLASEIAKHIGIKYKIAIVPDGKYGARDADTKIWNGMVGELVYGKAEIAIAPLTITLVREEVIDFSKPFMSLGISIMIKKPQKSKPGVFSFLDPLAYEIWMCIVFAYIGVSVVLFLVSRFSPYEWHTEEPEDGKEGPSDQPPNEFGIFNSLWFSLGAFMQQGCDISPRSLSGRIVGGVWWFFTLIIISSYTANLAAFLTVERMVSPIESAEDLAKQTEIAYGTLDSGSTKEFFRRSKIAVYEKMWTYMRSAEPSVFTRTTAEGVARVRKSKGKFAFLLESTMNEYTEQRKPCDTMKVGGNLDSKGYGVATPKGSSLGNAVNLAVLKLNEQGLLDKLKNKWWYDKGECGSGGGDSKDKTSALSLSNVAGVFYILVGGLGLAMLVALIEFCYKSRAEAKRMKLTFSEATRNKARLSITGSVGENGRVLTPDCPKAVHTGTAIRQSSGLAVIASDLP
T1 sequence (P19490 19-907): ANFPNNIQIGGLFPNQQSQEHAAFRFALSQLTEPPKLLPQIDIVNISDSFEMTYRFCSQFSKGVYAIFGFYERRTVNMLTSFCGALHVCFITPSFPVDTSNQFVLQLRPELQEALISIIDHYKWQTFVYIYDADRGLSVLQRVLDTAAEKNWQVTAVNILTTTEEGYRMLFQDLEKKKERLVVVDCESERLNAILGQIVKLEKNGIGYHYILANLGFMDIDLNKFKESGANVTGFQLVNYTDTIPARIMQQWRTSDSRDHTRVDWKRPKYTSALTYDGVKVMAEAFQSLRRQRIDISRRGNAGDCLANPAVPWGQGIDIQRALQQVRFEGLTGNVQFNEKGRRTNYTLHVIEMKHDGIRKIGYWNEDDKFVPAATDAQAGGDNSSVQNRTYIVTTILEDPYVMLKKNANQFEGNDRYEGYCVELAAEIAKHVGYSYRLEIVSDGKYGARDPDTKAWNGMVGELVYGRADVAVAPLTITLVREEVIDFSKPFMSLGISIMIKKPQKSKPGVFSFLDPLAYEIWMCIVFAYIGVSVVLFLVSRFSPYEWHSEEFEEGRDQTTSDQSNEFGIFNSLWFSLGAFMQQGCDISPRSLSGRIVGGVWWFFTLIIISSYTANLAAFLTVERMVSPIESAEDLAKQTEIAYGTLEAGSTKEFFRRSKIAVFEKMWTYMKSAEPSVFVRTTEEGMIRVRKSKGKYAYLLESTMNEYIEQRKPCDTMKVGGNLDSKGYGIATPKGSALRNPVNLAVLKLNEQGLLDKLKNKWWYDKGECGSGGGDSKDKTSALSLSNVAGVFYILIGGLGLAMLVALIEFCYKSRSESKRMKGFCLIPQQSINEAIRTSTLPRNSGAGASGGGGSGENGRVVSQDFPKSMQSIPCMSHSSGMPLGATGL
T2 sequence (P19492 23-888): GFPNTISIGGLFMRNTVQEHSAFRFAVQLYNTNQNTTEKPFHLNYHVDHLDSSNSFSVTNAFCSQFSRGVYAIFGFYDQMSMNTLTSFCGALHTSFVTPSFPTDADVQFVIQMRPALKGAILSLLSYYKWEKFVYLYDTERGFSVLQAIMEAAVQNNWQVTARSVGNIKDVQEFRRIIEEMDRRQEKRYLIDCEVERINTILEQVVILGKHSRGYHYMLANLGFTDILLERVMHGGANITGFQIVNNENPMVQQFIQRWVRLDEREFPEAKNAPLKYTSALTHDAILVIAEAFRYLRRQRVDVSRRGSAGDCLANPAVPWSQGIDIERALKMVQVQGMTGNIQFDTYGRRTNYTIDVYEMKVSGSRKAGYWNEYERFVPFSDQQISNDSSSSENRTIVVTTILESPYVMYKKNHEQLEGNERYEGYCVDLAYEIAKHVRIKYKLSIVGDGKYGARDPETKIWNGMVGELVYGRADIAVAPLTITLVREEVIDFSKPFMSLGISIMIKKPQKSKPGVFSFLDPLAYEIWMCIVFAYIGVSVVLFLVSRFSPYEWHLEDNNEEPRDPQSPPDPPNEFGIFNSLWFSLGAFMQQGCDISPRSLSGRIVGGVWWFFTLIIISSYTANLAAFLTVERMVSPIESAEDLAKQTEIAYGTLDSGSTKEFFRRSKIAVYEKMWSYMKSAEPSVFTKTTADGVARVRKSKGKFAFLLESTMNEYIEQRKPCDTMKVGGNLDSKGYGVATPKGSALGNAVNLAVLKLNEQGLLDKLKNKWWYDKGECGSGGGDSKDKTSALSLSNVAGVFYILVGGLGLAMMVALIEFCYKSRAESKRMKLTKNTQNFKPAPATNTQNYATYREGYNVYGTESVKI
T5 sequence (Q00959 23-1464, other chains not shown): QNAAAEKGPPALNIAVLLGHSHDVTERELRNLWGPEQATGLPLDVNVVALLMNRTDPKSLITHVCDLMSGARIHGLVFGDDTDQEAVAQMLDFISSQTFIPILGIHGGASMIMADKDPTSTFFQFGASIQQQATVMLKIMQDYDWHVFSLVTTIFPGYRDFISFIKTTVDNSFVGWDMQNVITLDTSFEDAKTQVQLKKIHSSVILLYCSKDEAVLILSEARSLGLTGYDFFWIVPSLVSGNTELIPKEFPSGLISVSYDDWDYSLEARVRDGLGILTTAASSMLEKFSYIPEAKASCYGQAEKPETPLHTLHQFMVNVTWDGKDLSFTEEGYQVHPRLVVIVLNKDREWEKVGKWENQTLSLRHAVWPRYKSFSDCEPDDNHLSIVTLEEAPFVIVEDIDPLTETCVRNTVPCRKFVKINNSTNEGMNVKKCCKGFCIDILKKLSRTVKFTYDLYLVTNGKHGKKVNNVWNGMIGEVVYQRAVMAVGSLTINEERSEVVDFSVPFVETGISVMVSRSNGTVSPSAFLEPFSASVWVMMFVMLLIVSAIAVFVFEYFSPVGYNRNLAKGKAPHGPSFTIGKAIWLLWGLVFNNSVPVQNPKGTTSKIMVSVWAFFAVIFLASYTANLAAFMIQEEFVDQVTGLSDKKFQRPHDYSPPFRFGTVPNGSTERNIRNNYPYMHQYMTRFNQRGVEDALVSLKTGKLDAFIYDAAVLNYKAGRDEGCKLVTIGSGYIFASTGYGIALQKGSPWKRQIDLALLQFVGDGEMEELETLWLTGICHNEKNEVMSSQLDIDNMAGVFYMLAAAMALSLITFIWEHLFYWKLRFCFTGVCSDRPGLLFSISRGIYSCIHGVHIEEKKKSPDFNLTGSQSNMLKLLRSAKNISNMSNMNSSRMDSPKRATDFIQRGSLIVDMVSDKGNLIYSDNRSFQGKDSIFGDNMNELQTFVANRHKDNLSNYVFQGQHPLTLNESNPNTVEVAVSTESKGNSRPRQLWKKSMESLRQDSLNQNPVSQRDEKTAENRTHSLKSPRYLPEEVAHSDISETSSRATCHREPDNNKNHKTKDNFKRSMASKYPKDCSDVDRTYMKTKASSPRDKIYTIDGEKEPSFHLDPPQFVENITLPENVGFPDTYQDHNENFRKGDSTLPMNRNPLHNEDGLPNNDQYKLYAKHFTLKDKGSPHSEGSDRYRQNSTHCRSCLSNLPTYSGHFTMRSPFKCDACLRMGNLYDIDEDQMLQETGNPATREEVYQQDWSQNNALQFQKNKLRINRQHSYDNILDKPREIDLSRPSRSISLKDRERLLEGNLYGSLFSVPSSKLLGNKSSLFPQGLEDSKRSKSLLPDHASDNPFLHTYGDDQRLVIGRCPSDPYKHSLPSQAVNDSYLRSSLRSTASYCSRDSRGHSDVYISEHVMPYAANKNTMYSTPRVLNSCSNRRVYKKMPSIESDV

“AG56: 56-nucleotide truncated version of AG1407, RNA aptamer (GGGAGAUUGUGAAGCGUAGGCUCGAGUUUGUCCCGCGAGCCAAAGAUUCCAGACCC; RNA, backbone not given here)”: the “inhibition of the closed-channel conformation” value in data set [1], in data set [3] and in data set [5] (GluA4) was “no inhibitory effect” each time. Further, the “inhibition of the open-channel conformation” value in data set [1] is “similarly inhibited the open-channel conformation”; in data set [3], “similarly inhibited the open-channel conformation”; in data set [5] (GluA4), “weak”. The “effect on kainate receptor channel” value in data set [2] and in data set [7] was “did not affect” throughout. For the same substance, the “effect on channel-closing rate (kcl)” value in data set [4] (setting [8]) is “inhibited the rate of channel closing”. The “effect on current amplitude” value in data set [4] (setting [8]) is on record as “did not affect the current amplitude”; in data set [4] (higher glutamate concentration) it was “reduced the current amplitude”. The “kobs value, which reflected kcl” value in data set [4] (100 μM photolytically released glutamate, +0.75 μM AG56 (control 2,200)) is 1,600 s^−1. Besides, the “kobs value, which reflected kop” value in data set [4] (340 μM photolytically released glutamate, 0.75 μM AG56 (absence 5,128)) is listed as 4,405 s^−1. Further, the “effect on channel-opening rate constant (kop)” value in data set [4] (increased glutamate concentration) was “did not inhibit kop”. Moreover, the “A/A(I)” value in data set [5] (0.5 μM AG56, 3 mM glutamate, open-channel GluA4) is given as “not significantly larger than 1.0”. The “A/A(I) ratio” value in data set [5] (1 μM AG56, 3 mM glutamate, open-channel GluA4) is recorded as 1.2. The “effect on NMDA receptor channel” value in data set [6] is reported as “did not affect”.
